# Assays:
# Test in all cases: relative viability (nuclei count vs DMSO), 5 days (fraction); higher = more cells survive
# A-427 = test system: A-427
# How it was run: (§1)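 Relative viability was taken as the ratio of nuclei in treated wells to nuclei in vehicle wells. Lung cancer cell lines in 1536-well plates received compounds by pin tool one day after seeding, either one drug alone or a fixed anchor-drug dose plus five library-drug doses (not always all listed) in √10 steps. Nuclei were counted on 4× images after 5 days of treatment, and values are medians of duplicate plates.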
# CAL-12T = test system: CAL-12T
# How it was run: as §1
# COR-L 105 = test system: COR-L 105
# How it was run: as §1
# COR-L23 = test system: COR-L23
# How it was run: as §1
# EPLC-272H = test system: EPLC-272H
# How it was run: as §1
# HOP-62 = test system: HOP-62
# How it was run: as §1
# LCLC-103H = test system: LCLC-103H
# How it was run: as §1
# LXF-289 = test system: LXF-289
# How it was run: as §1
# NCI-H1395 = test system: NCI-H1395
# How it was run: as §1
# NCI-H1651 = test system: NCI-H1651
# How it was run: as §1
# NCI-H1975 = test system: NCI-H1975
# How it was run: as §1
# NCI-H1993 = test system: NCI-H1993
# How it was run: as §1
# NCI-H2023 = test system: NCI-H2023
# How it was run: as §1
# NCI-H2085 = test system: NCI-H2085
# How it was run: as §1
# NCI-H2087 = test system: NCI-H2087
# How it was run: as §1
# NCI-H2170 = test system: NCI-H2170
# How it was run: as §1
# NCI-H3122 = test system: NCI-H3122
# How it was run: as §1
# NCI-H596 = test system: NCI-H596
# How it was run: as §1
# NCI-H647 = test system: NCI-H647
# How it was run: as §1
# NCI-H650 = test system: NCI-H650
# How it was run: as §1
# PC-14 = test system: PC-14
# How it was run: as §1
# RERF-LC-KJ = test system: RERF-LC-KJ
# How it was run: as §1
# SK-MES-1 = test system: SK-MES-1
# How it was run: as §1
smiles,measurement,setting,value
Cc1cnc(-c2cnc(NCCNc3ccc(C#N)cn3)nc2-c2ccc(Cl)cc2Cl)[nH]1 + COc1cc2c(Oc3ccc(NC(=O)C4(C(=O)Nc5ccc(F)cc5)CC4)cc3F)ccnc2cc1OCCCN1CCOCC1 [Foretinib] (partner 0.25 µM),relative viability,A-427; first compound 0.08 µM,1.13
same,relative viability,A-427; first compound 0.253 µM,1.01
same,relative viability,A-427; first compound 0.8 µM,0.861
same,relative viability,A-427; first compound 2.53 µM,1.07
same,relative viability,CAL-12T; first compound 0.08 µM,1.07
same,relative viability,CAL-12T; first compound 0.253 µM,0.946
same,relative viability,CAL-12T; first compound 0.8 µM,1.15
same,relative viability,CAL-12T; first compound 2.53 µM,0.979
same,relative viability,COR-L 105; first compound 0.08 µM,0.906
same,relative viability,COR-L 105; first compound 0.253 µM,1.03
same,relative viability,COR-L 105; first compound 0.8 µM,0.943
same,relative viability,COR-L 105; first compound 2.53 µM,0.868
same,relative viability,COR-L23; first compound 0.08 µM,0.853
same,relative viability,COR-L23; first compound 0.253 µM,0.877
same,relative viability,COR-L23; first compound 0.8 µM,1.08
same,relative viability,COR-L23; first compound 2.53 µM,0.951
same,relative viability,EPLC-272H; first compound 0.08 µM,0.737
same,relative viability,EPLC-272H; first compound 0.253 µM,0.617
same,relative viability,EPLC-272H; first compound 0.8 µM,0.692
same,relative viability,EPLC-272H; first compound 2.53 µM,0.747
same,relative viability,HOP-62; first compound 0.08 µM,1.05
same,relative viability,HOP-62; first compound 0.253 µM,1.02
same,relative viability,HOP-62; first compound 0.8 µM,1.12
same,relative viability,HOP-62; first compound 2.53 µM,0.947
same,relative viability,LCLC-103H; first compound 0.08 µM,0.751
same,relative viability,LCLC-103H; first compound 0.253 µM,0.734
same,relative viability,LCLC-103H; first compound 0.8 µM,0.745
same,relative viability,LCLC-103H; first compound 2.53 µM,0.79
same,relative viability,LXF-289; first compound 0.08 µM,1.03
same,relative viability,LXF-289; first compound 0.253 µM,0.858
same,relative viability,LXF-289; first compound 0.8 µM,0.994
same,relative viability,LXF-289; first compound 2.53 µM,1.02
same,relative viability,NCI-H1395; first compound 0.08 µM,1.03
same,relative viability,NCI-H1395; first compound 0.253 µM,0.953
same,relative viability,NCI-H1395; first compound 0.8 µM,1.02
same,relative viability,NCI-H1395; first compound 2.53 µM,0.956
same,relative viability,NCI-H1651; first compound 0.08 µM,0.728
same,relative viability,NCI-H1651; first compound 0.253 µM,0.777
same,relative viability,NCI-H1651; first compound 0.8 µM,0.785
same,relative viability,NCI-H1651; first compound 2.53 µM,0.883
same,relative viability,NCI-H1975; first compound 0.08 µM,0.928
same,relative viability,NCI-H1975; first compound 0.253 µM,0.911
same,relative viability,NCI-H1975; first compound 0.8 µM,0.771
same,relative viability,NCI-H1975; first compound 2.53 µM,0.573
same,relative viability,NCI-H1993; first compound 0.08 µM,0.902
same,relative viability,NCI-H1993; first compound 0.253 µM,0.652
same,relative viability,NCI-H1993; first compound 0.8 µM,0.754
same,relative viability,NCI-H1993; first compound 2.53 µM,0.889
same,relative viability,NCI-H2023; first compound 0.08 µM,0.709
same,relative viability,NCI-H2023; first compound 0.8 µM,0.938
same,relative viability,NCI-H2023; first compound 2.53 µM,1.18
same,relative viability,NCI-H2085; first compound 0.08 µM,0.989
same,relative viability,NCI-H2085; first compound 0.253 µM,0.88
same,relative viability,NCI-H2085; first compound 0.8 µM,0.762
same,relative viability,NCI-H2085; first compound 2.53 µM,0.937
same,relative viability,NCI-H2087; first compound 0.08 µM,1.31
same,relative viability,NCI-H2087; first compound 0.253 µM,1.06
same,relative viability,NCI-H2087; first compound 0.8 µM,1.14
same,relative viability,NCI-H2087; first compound 2.53 µM,1.14
same,relative viability,NCI-H2170; first compound 0.08 µM,0.953
same,relative viability,NCI-H2170; first compound 0.253 µM,0.906
same,relative viability,NCI-H2170; first compound 0.8 µM,0.965
same,relative viability,NCI-H2170; first compound 2.53 µM,0.997
same,relative viability,NCI-H3122; first compound 0.08 µM,0.943
same,relative viability,NCI-H3122; first compound 0.8 µM,0.935
same,relative viability,NCI-H3122; first compound 2.53 µM,0.914
same,relative viability,NCI-H596; first compound 0.08 µM,0.929
same,relative viability,NCI-H596; first compound 0.253 µM,0.776
same,relative viability,NCI-H596; first compound 0.8 µM,0.872
same,relative viability,NCI-H596; first compound 2.53 µM,0.827
same,relative viability,NCI-H647; first compound 0.08 µM,1.35
same,relative viability,NCI-H647; first compound 0.253 µM,1.03
same,relative viability,NCI-H647; first compound 0.8 µM,0.938
same,relative viability,NCI-H647; first compound 2.53 µM,1.15
same,relative viability,NCI-H650; first compound 0.08 µM,1.07
same,relative viability,NCI-H650; first compound 0.253 µM,0.994
same,relative viability,NCI-H650; first compound 0.8 µM,1.09
same,relative viability,NCI-H650; first compound 2.53 µM,1.03
same,relative viability,PC-14; first compound 0.08 µM,0.978
same,relative viability,PC-14; first compound 0.253 µM,0.852
same,relative viability,PC-14; first compound 0.8 µM,0.941
same,relative viability,PC-14; first compound 2.53 µM,0.894
same,relative viability,RERF-LC-KJ; first compound 0.08 µM,0.906
same,relative viability,RERF-LC-KJ; first compound 0.253 µM,0.796
same,relative viability,RERF-LC-KJ; first compound 0.8 µM,0.826
same,relative viability,RERF-LC-KJ; first compound 2.53 µM,0.832
same,relative viability,SK-MES-1; first compound 0.08 µM,1.09
same,relative viability,SK-MES-1; first compound 0.253 µM,0.909
same,relative viability,SK-MES-1; first compound 0.8 µM,0.942
same,relative viability,SK-MES-1; first compound 2.53 µM,1.02
